# Target: T1, Aldose Reductase (Rattus norvegicus, UniProt P07943)
# T1 construct: Aldose Reductase was isolated from Rat lens; from tissue; host or cells: rat lens
# Assay: Aldose Reductase enzyme assay
# Format: biochemical
# Details: Wistar rat lens enzyme
# Protocol: Experiments were conducted to test the effects of Morinda citrifolia products on Aldose Reductase. Aldose Reductase is an enzyme that is highly expressed in the eye (lens) of diabetic patients. High expression of Aldose Reductase may lead to blindness. Quantitation of Aldose Redutase activity was achieved by utilizing DL-Glyceraldehyde as a substrate. DL-Glyceraldehyde reacts with NADPH to form NADP+. A spectrophotometer was utilized to quantitiate levels of NADPH. Aldose Reductase was isolated from Rat lens. Quercertin was utilized as a reference compound. Methods employed in this study were adapted from the scientific literature to maximize reliability and reproducibility. […] Biochemical assay results are presented as the percent inhibition of specific binding or activity throughout the report. All other results are expressed in terms of that assay's quantitation method. For primary assays, only the lowest concentration with a significant response judged by the assays' criteria, is shown in this summary.
structure (smiles),measurement,setting,value
O=c1c(O)c(-c2ccc(O)c(O)c2)oc2cc(O)cc(O)c12 [Quercetin],% INH. Aldose Reductase,conc. 1%,77%
same,% INH. Aldose Reductase,conc. 5%,77%

# Source: US20050158412A1, “Type II diabetes” (priority 2004, published 2005)
